Reference: PMC9817970 (Cancers, 2022)

What was measured:
Assay in all cases: Kinase panel profiling
Type in all cases: biochemical
Conditions in all cases: 10 μM ATP
[1] = target: T1, IRAK4 (Homo sapiens, UniProt Q9NWZ3)
T1 construct: purchased Reaction Biology Corp
Description: (§1) Kinase panel profiling was conducted by Reaction Biology Corp. (San Diego, CA, USA). A single dose (1.0 μM) of 6r was tested against 371 recombinant human kinases in the presence of 10 μM ATP.

[2] = target: T2, KHS/MAP4K5 (Homo sapiens, UniProt Q9Y4K4)
T2 construct: purchased Reaction Biology Corp
Description: as §1

[3] = target: T3, PYK2 (Homo sapiens, UniProt Q14289)
T3 construct: purchased Reaction Biology Corp
Description: as §1

[4] = target: T4, MUSK (Homo sapiens, UniProt O15146)
T4 construct: purchased Reaction Biology Corp
Description: as §1

[5] = target: T5, PIM2 (Homo sapiens, UniProt Q9P1W9)
T5 construct: purchased Reaction Biology Corp
Description: as §1

[6] = target: T6, EPHA6 (Homo sapiens, UniProt Q9UF33)
T6 construct: purchased Reaction Biology Corp
Description: as §1

[7] = target: T7, GRK3 (Homo sapiens, UniProt P35626)
T7 construct: purchased Reaction Biology Corp
Description: as §1

[8] = target: T8, FGFR2 (Homo sapiens, UniProt P21802)
T8 construct: purchased Reaction Biology Corp
Description: as §1

[9] = target: T9, IRR/INSRR (Homo sapiens, UniProt P14616)
T9 construct: purchased Reaction Biology Corp
Description: as §1

[10] = target: T10, Haspin (Homo sapiens, UniProt Q8TF76)
T10 construct: purchased Reaction Biology Corp
Description: as §1

[11] = target: T11, NEK6 (Homo sapiens, UniProt Q9HC98)
T11 construct: purchased Reaction Biology Corp
Description: as §1

[12] = target: T12, PKCtheta (Homo sapiens, UniProt Q04759)
T12 construct: purchased Reaction Biology Corp
Description: as §1

[13] = target: T13, CK1epsilon (Homo sapiens, UniProt P49674)
T13 construct: purchased Reaction Biology Corp
Description: as §1

[14] = target: T14, AKT2 (Homo sapiens, UniProt P31751)
T14 construct: purchased Reaction Biology Corp
Description: as §1

[15] = target: T15, MKK6 (Homo sapiens, UniProt P52564)
T15 construct: purchased Reaction Biology Corp
Description: as §1

[16] = target: T16, p70S6K/RPS6KB1 (Homo sapiens, UniProt P23443)
T16 construct: purchased Reaction Biology Corp
Description: as §1

[17] = target: T17, RON/MST1R (Homo sapiens, UniProt Q04912)
T17 construct: purchased Reaction Biology Corp
Description: as §1

[18] = target: T18, NEK11 (Homo sapiens, UniProt Q8NG66)
T18 construct: purchased Reaction Biology Corp
Description: as §1

[19] = target: T19, PIM3 (Homo sapiens, UniProt Q86V86)
T19 construct: purchased Reaction Biology Corp
Description: as §1

[20] = target: T20, PIM1 (Homo sapiens, UniProt P11309)
T20 construct: purchased Reaction Biology Corp
Description: as §1

[21] = target: T21, LATS2 (Homo sapiens, UniProt Q9NRM7)
T21 construct: purchased Reaction Biology Corp
Description: as §1

[22] = target: T22, AKT1 (Homo sapiens, UniProt P31749)
T22 construct: purchased Reaction Biology Corp
Description: as §1

[23] = target: T23, DMPK2 (Homo sapiens, UniProt Q6DT37)
T23 construct: purchased Reaction Biology Corp
Description: as §1

[24] = target: T24, ERK2/MAPK1 (Homo sapiens, UniProt P28482)
T24 construct: purchased Reaction Biology Corp
Description: as §1

[25] = target: T25, PKCeta (Homo sapiens, UniProt P24723)
T25 construct: purchased Reaction Biology Corp
Description: as §1

[26] = target: T26, STK25/YSK1 (Homo sapiens, UniProt O00506)
T26 construct: purchased Reaction Biology Corp
Description: as §1

[27] = target: T27, BMPR2 (Homo sapiens, UniProt Q13873)
T27 construct: purchased Reaction Biology Corp
Description: as §1

[28] = target: T28, PAK4 (Homo sapiens, UniProt O96013)
T28 construct: purchased Reaction Biology Corp
Description: as §1

[29] = target: T29, CDK2/Cyclin A1 (Homo sapiens, UniProt P24941)
T29 construct: purchased Reaction Biology Corp
Description: as §1

[30] = target: T30, MNK1 (Homo sapiens, UniProt Q9BUB5)
T30 construct: purchased Reaction Biology Corp
Description: as §1

[31] = target: T31, WNK2 (Homo sapiens, UniProt Q9Y3S1)
T31 construct: purchased Reaction Biology Corp
Description: as §1

[32] = target: T32, CDK9/cyclin T2 (Homo sapiens, UniProt P50750)
T32 construct: purchased Reaction Biology Corp
Description: as §1

[33] = target: T33, TLK2 (Homo sapiens, UniProt Q86UE8)
T33 construct: purchased Reaction Biology Corp
Description: as §1

[34] = target: T34, ROCK2 (Homo sapiens, UniProt O75116)
T34 construct: purchased Reaction Biology Corp
Description: as §1

[35] = target: T35, FER (Homo sapiens, UniProt P16591)
T35 construct: purchased Reaction Biology Corp
Description: as §1

[36] = target: T36, WEE1 (Homo sapiens, UniProt P30291)
T36 construct: purchased Reaction Biology Corp
Description: as §1

[37] = target: T37, DAPK1 (Homo sapiens, UniProt P53355)
T37 construct: purchased Reaction Biology Corp
Description: as §1

[38] = target: T38, HIPK4 (Homo sapiens, UniProt Q8NE63)
T38 construct: purchased Reaction Biology Corp
Description: as §1

[39] = target: T39, STK32C/YANK3 (Homo sapiens, UniProt Q86UX6)
T39 construct: purchased Reaction Biology Corp
Description: as §1

[40] = target: T40, CDK2/CYCLIN E (Homo sapiens, UniProt P24941)
T40 construct: purchased Reaction Biology Corp
Description: as §1

[41] = target: T41, EPHA7 (Homo sapiens, UniProt Q15375)
T41 construct: purchased Reaction Biology Corp
Description: as §1

[42] = target: T42, OSR1/OXSR1 (Homo sapiens, UniProt O95747)
T42 construct: purchased Reaction Biology Corp
Description: as §1

[43] = target: T43, MAPKAPK2 (Homo sapiens, UniProt P49137)
T43 construct: purchased Reaction Biology Corp
Description: as §1

T7 sequence (P35626 whole entry): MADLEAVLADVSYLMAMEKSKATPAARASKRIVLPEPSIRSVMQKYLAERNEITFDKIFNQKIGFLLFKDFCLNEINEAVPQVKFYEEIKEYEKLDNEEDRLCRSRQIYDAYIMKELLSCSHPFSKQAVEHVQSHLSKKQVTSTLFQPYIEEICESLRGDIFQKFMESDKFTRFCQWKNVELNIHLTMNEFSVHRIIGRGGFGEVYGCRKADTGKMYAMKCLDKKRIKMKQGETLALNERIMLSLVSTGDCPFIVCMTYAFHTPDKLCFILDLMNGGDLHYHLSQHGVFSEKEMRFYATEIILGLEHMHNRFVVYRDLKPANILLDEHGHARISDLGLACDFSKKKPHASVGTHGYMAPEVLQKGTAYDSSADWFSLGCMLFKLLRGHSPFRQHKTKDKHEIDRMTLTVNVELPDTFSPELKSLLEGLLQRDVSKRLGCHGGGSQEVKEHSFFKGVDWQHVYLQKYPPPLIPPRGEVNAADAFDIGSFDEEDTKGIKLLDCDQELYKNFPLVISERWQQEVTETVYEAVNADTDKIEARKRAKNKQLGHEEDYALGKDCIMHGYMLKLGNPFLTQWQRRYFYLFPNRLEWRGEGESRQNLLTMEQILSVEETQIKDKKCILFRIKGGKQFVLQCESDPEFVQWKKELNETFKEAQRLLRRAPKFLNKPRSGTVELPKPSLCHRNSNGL
T33 sequence (Q86UE8 whole entry): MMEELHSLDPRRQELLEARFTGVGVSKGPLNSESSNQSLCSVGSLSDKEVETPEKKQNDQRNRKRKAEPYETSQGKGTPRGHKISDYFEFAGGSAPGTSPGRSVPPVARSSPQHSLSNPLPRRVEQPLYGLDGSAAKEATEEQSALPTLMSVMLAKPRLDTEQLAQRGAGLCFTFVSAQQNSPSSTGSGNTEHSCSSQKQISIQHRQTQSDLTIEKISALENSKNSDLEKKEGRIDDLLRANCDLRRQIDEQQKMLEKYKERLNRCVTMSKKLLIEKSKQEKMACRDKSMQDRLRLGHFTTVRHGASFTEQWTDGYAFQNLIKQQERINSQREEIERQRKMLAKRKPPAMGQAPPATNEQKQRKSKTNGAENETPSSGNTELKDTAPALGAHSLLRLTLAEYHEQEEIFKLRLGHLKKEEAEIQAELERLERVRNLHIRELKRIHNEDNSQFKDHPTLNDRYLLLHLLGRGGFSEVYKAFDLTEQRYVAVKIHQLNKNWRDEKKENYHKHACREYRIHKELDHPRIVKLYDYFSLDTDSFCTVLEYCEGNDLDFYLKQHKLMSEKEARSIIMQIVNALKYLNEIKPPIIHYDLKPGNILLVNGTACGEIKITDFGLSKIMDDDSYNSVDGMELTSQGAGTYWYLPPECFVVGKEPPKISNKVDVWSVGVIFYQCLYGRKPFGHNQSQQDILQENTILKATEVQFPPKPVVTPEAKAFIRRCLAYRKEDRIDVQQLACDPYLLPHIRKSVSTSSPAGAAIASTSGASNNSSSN
T38 sequence (Q8NE63 whole entry): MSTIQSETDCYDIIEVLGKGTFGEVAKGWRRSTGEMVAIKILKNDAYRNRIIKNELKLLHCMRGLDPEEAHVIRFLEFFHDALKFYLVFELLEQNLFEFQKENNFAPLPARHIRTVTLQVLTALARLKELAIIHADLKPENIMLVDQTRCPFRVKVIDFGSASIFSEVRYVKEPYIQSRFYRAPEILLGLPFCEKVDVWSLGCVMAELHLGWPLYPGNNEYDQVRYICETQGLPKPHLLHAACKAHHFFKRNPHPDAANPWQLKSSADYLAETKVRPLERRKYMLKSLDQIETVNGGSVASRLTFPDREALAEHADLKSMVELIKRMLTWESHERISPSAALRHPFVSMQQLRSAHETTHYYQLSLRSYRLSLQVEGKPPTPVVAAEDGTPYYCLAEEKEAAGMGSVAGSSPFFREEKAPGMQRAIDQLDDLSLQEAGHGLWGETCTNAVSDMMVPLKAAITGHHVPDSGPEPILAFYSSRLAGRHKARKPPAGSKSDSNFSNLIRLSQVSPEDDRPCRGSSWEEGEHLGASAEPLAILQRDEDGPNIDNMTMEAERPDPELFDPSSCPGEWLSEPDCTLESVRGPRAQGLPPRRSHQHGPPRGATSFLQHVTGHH
T39 sequence (Q86UX6 whole entry): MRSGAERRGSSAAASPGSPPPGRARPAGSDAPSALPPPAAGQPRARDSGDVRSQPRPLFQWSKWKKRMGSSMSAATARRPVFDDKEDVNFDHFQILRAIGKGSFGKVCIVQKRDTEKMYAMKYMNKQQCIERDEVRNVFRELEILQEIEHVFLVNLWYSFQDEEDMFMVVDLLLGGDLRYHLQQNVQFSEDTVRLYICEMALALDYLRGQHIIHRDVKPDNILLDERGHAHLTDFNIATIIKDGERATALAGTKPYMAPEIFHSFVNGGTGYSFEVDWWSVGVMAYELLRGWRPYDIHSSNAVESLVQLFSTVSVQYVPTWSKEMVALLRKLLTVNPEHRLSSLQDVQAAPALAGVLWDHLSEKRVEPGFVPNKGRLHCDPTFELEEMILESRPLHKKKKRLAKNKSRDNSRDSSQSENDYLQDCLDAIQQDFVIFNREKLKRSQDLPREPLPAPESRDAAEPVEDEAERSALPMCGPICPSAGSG
T27 sequence (Q13873 27-1038): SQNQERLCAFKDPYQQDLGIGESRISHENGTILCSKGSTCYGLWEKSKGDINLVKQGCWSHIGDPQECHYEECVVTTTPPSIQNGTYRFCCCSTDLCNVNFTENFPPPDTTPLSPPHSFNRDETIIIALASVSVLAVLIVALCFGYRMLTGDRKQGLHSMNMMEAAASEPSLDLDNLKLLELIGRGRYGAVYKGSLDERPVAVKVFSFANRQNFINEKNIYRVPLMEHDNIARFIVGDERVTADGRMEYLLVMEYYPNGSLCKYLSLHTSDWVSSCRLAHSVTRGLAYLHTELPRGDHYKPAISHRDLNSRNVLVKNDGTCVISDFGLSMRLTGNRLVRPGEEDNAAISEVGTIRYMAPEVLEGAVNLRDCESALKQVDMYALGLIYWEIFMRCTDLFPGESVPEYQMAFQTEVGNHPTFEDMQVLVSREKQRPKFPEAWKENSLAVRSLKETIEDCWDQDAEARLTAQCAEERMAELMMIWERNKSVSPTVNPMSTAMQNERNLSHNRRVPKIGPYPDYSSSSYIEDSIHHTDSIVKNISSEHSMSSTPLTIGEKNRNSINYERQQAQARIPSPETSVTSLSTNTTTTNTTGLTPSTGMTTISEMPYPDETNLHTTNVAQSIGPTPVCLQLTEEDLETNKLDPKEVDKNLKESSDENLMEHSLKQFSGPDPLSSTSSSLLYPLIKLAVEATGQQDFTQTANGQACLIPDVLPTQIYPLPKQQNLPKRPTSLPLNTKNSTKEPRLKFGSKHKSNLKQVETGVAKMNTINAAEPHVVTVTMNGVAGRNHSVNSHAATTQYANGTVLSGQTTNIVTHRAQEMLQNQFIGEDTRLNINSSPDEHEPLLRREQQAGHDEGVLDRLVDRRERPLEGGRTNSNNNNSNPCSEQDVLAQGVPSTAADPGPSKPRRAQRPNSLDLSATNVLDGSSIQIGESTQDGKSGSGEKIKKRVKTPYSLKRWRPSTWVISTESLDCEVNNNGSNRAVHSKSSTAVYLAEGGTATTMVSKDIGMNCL
T34 sequence (O75116 whole entry): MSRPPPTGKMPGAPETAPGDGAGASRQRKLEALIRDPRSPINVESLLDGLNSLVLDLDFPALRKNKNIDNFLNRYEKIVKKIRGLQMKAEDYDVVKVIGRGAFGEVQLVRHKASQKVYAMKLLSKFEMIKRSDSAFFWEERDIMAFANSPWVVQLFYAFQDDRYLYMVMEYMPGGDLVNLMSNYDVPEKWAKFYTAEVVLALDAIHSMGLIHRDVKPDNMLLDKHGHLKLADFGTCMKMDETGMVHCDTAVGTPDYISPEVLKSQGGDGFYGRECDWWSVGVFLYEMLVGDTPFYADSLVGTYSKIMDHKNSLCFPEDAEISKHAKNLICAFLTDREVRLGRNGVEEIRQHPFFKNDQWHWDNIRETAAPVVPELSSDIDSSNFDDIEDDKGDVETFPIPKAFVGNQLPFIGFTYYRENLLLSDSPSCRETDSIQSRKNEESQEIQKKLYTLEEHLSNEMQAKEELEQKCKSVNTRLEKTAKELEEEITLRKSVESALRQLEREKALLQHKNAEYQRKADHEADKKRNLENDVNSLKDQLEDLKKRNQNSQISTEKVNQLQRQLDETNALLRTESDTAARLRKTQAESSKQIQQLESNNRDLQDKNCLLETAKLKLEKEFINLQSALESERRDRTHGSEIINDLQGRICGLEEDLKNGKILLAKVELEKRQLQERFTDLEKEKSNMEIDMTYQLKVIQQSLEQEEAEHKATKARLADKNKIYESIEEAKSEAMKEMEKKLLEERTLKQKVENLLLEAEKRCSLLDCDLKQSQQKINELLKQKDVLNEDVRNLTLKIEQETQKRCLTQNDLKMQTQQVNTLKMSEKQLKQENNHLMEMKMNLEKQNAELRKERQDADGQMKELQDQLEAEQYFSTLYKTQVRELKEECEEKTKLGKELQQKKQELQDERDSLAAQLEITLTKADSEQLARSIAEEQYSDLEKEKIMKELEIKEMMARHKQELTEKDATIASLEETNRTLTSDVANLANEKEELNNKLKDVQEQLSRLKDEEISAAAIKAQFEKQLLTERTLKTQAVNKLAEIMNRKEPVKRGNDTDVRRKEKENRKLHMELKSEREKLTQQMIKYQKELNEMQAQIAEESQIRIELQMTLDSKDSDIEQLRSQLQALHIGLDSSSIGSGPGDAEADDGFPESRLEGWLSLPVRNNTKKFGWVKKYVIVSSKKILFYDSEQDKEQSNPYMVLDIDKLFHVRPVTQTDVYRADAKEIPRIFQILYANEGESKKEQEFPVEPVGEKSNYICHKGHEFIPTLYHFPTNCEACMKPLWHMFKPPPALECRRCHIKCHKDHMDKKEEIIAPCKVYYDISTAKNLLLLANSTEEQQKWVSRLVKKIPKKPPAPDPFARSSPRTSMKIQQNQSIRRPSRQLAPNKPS

SMILES: Cc1ccc(NC(=O)c2ccc(CN3CCN(C)CC3)c(C(F)(F)F)c2)cc1-c1cnc2sc(N)nc2c1 [6r]
- inhibition at 1 µM [1]: 0%
- inhibition at 1 µM [2]: 0%
- inhibition at 1 µM [3]: 48.1%
- inhibition at 1 µM [4]: 10.8%
- inhibition at 1 µM [5]: 0.8%
- inhibition at 1 µM [6]: 39.9%
- inhibition at 1 µM [7]: 0%
- inhibition at 1 µM [8]: 43%
- inhibition at 1 µM [9]: 0%
- inhibition at 1 µM [10]: 12.1%
- inhibition at 1 µM [11]: 1%
- inhibition at 1 µM [12]: 6.9%
- inhibition at 1 µM [13]: 24.2%
- inhibition at 1 µM [14]: 14%
- inhibition at 1 µM [15]: 6.6%
- inhibition at 1 µM [16]: 8.4%
- inhibition at 1 µM [17]: 4.5%
- inhibition at 1 µM [18]: 18.3%
- inhibition at 1 µM [19]: 3.4%
- inhibition at 1 µM [20]: 13.6%
- inhibition at 1 µM [21]: 2.1%
- inhibition at 1 µM [22]: 0%
- inhibition at 1 µM [23]: 8%
- inhibition at 1 µM [24]: 13.5%
- inhibition at 1 µM [25]: 3.1%
- inhibition at 1 µM [26]: 9.3%
- inhibition at 1 µM [27]: 20.6%
- inhibition at 1 µM [28]: 8.6%
- inhibition at 1 µM [29]: 7.6%
- inhibition at 1 µM [30]: 0%
- inhibition at 1 µM [31]: 8.7%
- inhibition at 1 µM [32]: 0%
- inhibition at 1 µM [33]: 0%
- inhibition at 1 µM [34]: 0.6%
- inhibition at 1 µM [35]: 0%
- inhibition at 1 µM [36]: 0%
- inhibition at 1 µM [37]: 10.1%
- inhibition at 1 µM [38]: 8.7%
- inhibition at 1 µM [39]: 0.6%
- inhibition at 1 µM [40]: 0%
- inhibition at 1 µM [41]: 40.7%
- inhibition at 1 µM [42]: 5.5%
- inhibition at 1 µM [43]: 12.5%
